Measurements from patent US20190105367A1, “ANTIMICROBIAL 4-OXOQUINOLIZINES” (Emergent Product Development Gaithersburg Inc., priority 2011, published 2019).
Marks after values point to notes of the source that are not given here.

Experiments:
[1] = tested on: A. baumannii A14; test: MIC without and with sub-inhibitory polymyxin B (Example 4); type: cell-based, Acinetobacter baumannii; details: 1st experiment
[2] = tested on: A. baumannii A390; test: as above; type: cell-based, Acinetobacter baumannii; details: A. baumannii A390; for MIC: 2nd experiment
[3] = tested on: A. baumannii A387; test: as above; type: cell-based, Acinetobacter baumannii; details: A. baumannii A387; for MIC: 2nd experiment
[4] = tested on: A. baumannii NCTC 13301; test: as above; type: cell-based, Acinetobacter baumannii; details: A. baumannii NCTC 13301; +[…] polymyxin B; 1st experiment
[5] = tested on: A. baumannii A401; test: Preliminary MBC without and with sub-inhibitory polymyxin B (Example 4); type: cell-based, Acinetobacter baumannii; details: for MBC: 2nd experiment
[6] = tested on: A. baumannii A472; test: as above; type: cell-based, Acinetobacter baumannii; details: A. baumannii A472, preliminary MBC; for MBC: 2nd experiment
[7] = tested on: A. baumannii A329; test: as above; type: cell-based, Acinetobacter baumannii; details: for MBC: 2nd experiment
[8] = tested on: A. baumannii A472; test: MIC without and with sub-inhibitory polymyxin B (Example 4); type: cell-based, Acinetobacter baumannii; details: A. baumannii A472; for MIC: 2nd experiment
[9] = tested on: A. baumannii A387; test: Preliminary MBC without and with sub-inhibitory polymyxin B (Example 4); type: cell-based, Acinetobacter baumannii; details: for MBC: 2nd experiment
[10] = tested on: A. baumannii J2; test: as above; type: cell-based, Acinetobacter baumannii; details: A. baumannii J2, preliminary MBC; for MBC: 2nd experiment
[11] = tested on: A. baumannii ATCC 19606; test: as above; type: cell-based, Acinetobacter baumannii; details: for MBC: 2nd experiment
[12] = tested on: A. baumannii A489; test: MIC without and with sub-inhibitory polymyxin B (Example 4); type: cell-based, Acinetobacter baumannii; details: A. baumannii A489; for MIC: 2nd experiment
[13] = tested on: A. baumannii A401; test: as above; type: cell-based, Acinetobacter baumannii; details: A baumannii A 401; for MIC: 2nd experiment
[14] = tested on: A. baumannii ATCC 19606; test: as above; type: cell-based, Acinetobacter baumannii; details: A. baumannii ATCC 19606; for MIC: 2nd experiment
[15] = tested on: A. baumannii NCTC 13301; test: as above; type: cell-based, Acinetobacter baumannii; details: A. baumannii NCTC 13301; +[…] PB; 2nd experiment
[16] = tested on: Acinetobacter sp. (H064200250); test: Preliminary MBC without and with sub-inhibitory polymyxin B (Example 4); type: cell-based; details: preliminary MBC; for MBC: Acinetobacter spp. H064200250 (OXA51), 2nd experiment
In short: (§1)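 Bactericidal endpoint scored visually on plates incubated at 37° C (18-20 hours): the lowest concentration where growth fell about 90% versus the positive control, generally leaving one colony or none.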

[17] = tested on: strains of A. baumannii and one strain of Acinetobacter sp.; test: MIC with sub-inhibitory concentrations (0.25x MIC) of polymyxin B, panel of Acinetobacter strains (Example 4); type: cell-based
[18] = tested on: Acinetobacter sp. (H064200250); test: MIC without and with sub-inhibitory polymyxin B (Example 4); type: cell-based; details: for MIC: Acinetobacter spp. H064200250 (OXA51), 2nd experiment
[19] = tested on: A. baumannii J2; test: as above; type: cell-based, Acinetobacter baumannii; details: A. baumannii J2
[20] = tested on: A. baumannii A390; test: Preliminary MBC without and with sub-inhibitory polymyxin B (Example 4); type: cell-based, Acinetobacter baumannii; details: for MBC: 2nd experiment
In short: as §1

[21] = tested on: A. baumannii NCTC 13301; test: as above; type: cell-based, Acinetobacter baumannii; details: A. baumannii NCTC 13301, preliminary MBC; for MBC: 2nd experiment
In short: as §1

[22] = tested on: A. baumannii A473; test: as above; type: cell-based, Acinetobacter baumannii; details: for MBC: 2nd experiment
In short: as §1

[23] = tested on: A. baumannii A14; test: as above; type: cell-based, Acinetobacter baumannii; details: 2nd experiment
In short: as §1

[24] = tested on: A. baumannii A473; test: MIC without and with sub-inhibitory polymyxin B (Example 4); type: cell-based, Acinetobacter baumannii; details: A. baumannii A473; for MIC: 2nd experiment
[25] = without polymyxin B, 1st experiment
[26] = +0.06 μg/ml polymyxin B, 1st experiment
[27] = +[…] polymyxin B, 1st experiment
[28] = Acinetobacter spp. H064200250, +[…] polymyxin B, 1st experiment
[29] = Acinetobacter spp. H064200250, without polymyxin B, 1st experiment

Which results are given for Imipenem/cilastatin?
MIC +0.06 μg/ml PB ([1]; +0.06 μg/ml polymyxin B): 1 µg/mL; MIC without PB ([1]; without polymyxin B): 1 µg/mL; MIC ([2]; +0.06 μg/ml PB): 4 µg/mL; MIC ([2]; without PB): 16 µg/mL; MIC without PB [2, 25]: 16 µg/mL; MIC ([3]; +0.06 μg/ml PB): 8 µg/mL; MIC +0.06 μg/ml PB [3, 26]: 8 µg/mL; MIC ([3]; without PB): 16 µg/mL; MIC without PB [3, 25]: 16 µg/mL; MIC +[…] PB [4]: 16 µg/mL; MBC ([5]; A baumannii A 401, +0.06 μg/ml PB): 4 µg/mL; MBC +0.06 μg/ml PB ([5]; A baumannii A 401, +0.06 μg/ml polymyxin B, 1st experiment): 8 µg/mL; MBC ([5]; A baumannii A 401, without PB): 32 µg/mL; MBC without PB ([5]; A baumannii A 401, without polymyxin B, 1st experiment): 32 µg/mL; MBC ([6]; +[…] PB): 0.25 µg/mL; MBC +[…] PB [6, 27]: 0.25 µg/mL; MBC ([6]; without PB): 8 µg/mL; MBC without PB [6, 25]: 16 µg/mL; MBC ([7]; A. baumannii A329, +0.06 μg/ml PB): 128 µg/mL; MBC ([7]; A. baumannii A329, without PB): >128 µg/mL; MBC without PB ([7]; A. baumannii A329, without polymyxin B, 1st experiment): 128 µg/mL; MIC ([8]; +[…] PB): 0.25 µg/mL; MIC +[…] PB [8, 27]: 0.25 µg/mL; MIC ([8]; without PB): 8 µg/mL; MIC without PB [8, 25]: 16 µg/mL; MBC ([9]; A. baumannii A387, +0.06 μg/ml PB): 8 µg/mL; MBC +0.06 μg/ml PB ([9]; A. baumannii A387, +0.06 μg/ml polymyxin B, 1st experiment): 8 µg/mL; MBC ([9]; A. baumannii A387, without PB): 16 µg/mL; MBC without PB ([9]; A. baumannii A387, without polymyxin B, 1st experiment): 16 µg/mL; MBC ([10]; +[…] PB): ≤0.125 µg/mL; MBC +[…] PB [10, 27]: ≤0.125 µg/mL; MBC ([10]; without PB): 8 µg/mL; MBC without PB [10, 25]: 4 µg/mL; MBC ([11]; A. baumannii ATCC 19606, +0.06 μg/ml PB): 1 µg/mL; MBC +0.06 μg/ml PB ([11]; A. baumannii ATCC 19606, +0.06 μg/ml polymyxin B, 1st experiment): 2 µg/mL; MBC ([11]; A. baumannii ATCC 19606, without PB): 4 µg/mL; MBC without PB ([11]; A. baumannii ATCC 19606, without polymyxin B, 1st experiment): 2 µg/mL; MIC ([12]; +[…] PB): 0.25 µg/mL; MIC +[…] PB [12, 27]: 2 µg/mL; MIC ([12]; without PB): 64 µg/mL; MIC ([13]; +0.06 μg/ml PB): 4 µg/mL; MIC +0.06 μg/ml PB [13, 26]: 8 µg/mL; MIC ([13]; without PB): 32 µg/mL; MIC without PB [13, 25]: 32 µg/mL; MIC ([14]; +0.06 μg/ml PB): 1 µg/mL; MIC +0.06 μg/ml PB [14, 26]: 1 µg/mL; MIC ([14]; without PB): 1 µg/mL; MIC ([14]; without PB, value in parentheses marked *, mark not explained): 4 µg/mL; MIC without PB [14, 25]: 2 µg/mL; MIC [15]: 1 µg/mL; MBC ([16]; +[…] PB): 0.5 µg/mL; MBC ([16]; without PB): 8 µg/mL; MBC +[…] PB [16, 28]: 2 (0.5)* μg/ml; MBC without PB [16, 29]: 16 µg/mL; MIC range with PB (0.25x MIC) Oct. 1, 2008 n = 8 ([17]; 1st experiment, […] polymyxin B, ATCC 19606, A329, A390 and A473 not taken): <0.125 to 16 µg/mL; MIC range with PB (0.25x MIC) Oct. 14, 2008 n = 11 ([17]; 2nd experiment, 0.06 μg/ml polymyxin B, all strains except the ATCC strain): ≤0.125 to 128 µg/mL; MIC ([18]; +[…] PB): 0.5 µg/mL; MIC ([18]; without PB): 8 µg/mL; MIC +[…] PB [18, 28]: 0.5 µg/mL; MIC without PB [18, 29]: 16 µg/mL; MIC ([19]; +[…] PB, 2nd experiment): ≤0.125 µg/mL; MIC +[…] PB [19, 27]: ≤0.125 µg/mL; MIC ([19]; without PB, 2nd experiment): 8 µg/mL; MIC read with alamar blue ([19]; without PB, value in parentheses, 2nd experiment): 4 µg/mL; MIC without PB [19, 25]: 4 µg/mL; MBC ([20]; A. baumannii A390, +0.06 μg/ml PB): 4 µg/mL; MBC ([20]; A. baumannii A390, without PB): 16 µg/mL; MBC without PB ([20]; A. baumannii A390, without polymyxin B, 1st experiment): 16 µg/mL; MBC ([21]; +[…] PB): 0.5 µg/mL; MBC +[…] PB [21, 27]: 16 µg/mL; MBC ([21]; without PB): 128 µg/mL; MBC without PB [21, 25]: 128 µg/mL; MBC ([22]; A. baumannii A473, +0.06 μg/ml PB): 4 µg/mL; MBC ([22]; A. baumannii A473, without PB): 32 µg/mL; MBC without PB ([22]; A. baumannii A473, without polymyxin B, 1st experiment): 32 µg/mL; MBC ([23]; A. baumannii A14, +0.06 μg/ml PB): 0.5 µg/mL; MBC ([23]; A. baumannii A14, without PB): 1 µg/mL; MIC ([24]; +0.06 μg/ml PB): 4 µg/mL; MIC ([24]; without PB): 32 µg/mL; MIC without PB [24, 25]: 32 µg/mL
